How the values were obtained:
[1] = system: adult males of white peach scale; experiment: Field sticky-trap attraction test in a tea field, adult males of white peach scale; assay type: in vivo, Pseudaulacaspis pnetagona; details: number attracted to trap relative to Comparative Example 1 (100% Z isomer) = 100, rubber cap with 0.1 mg in total of Z and E isomers, June 2007
Description: (§1) In accordance with the process described in J. Org. Chem. 1980, 45, 2910-2913, (R,Z)-(+)-3,9-dimethyl-6-isopropenyl-3,9-decadienyl propionate, the sex pheromone of white peach scale, was synthesized. The product thus obtained was separated into the Z isomer and the E isomer by using medium-pressure liquid column chromatography. A gray rubber cap (produced by West in US) impregnated with 0.1 mg in total of the Z isomer and the E isomer at a weight ratio of 100:0, 90:10, 80:20, 70:30, 60:40, 50:50, 40:60, 20:80 or 0:100 was used as an attractant for test.
(§2) In the emerging season of first-generation adult males of white peach scale in June, 2007, the attractant described above was attached to a white sticky trap and placed at intervals of 10 m on ridges in a tea field. The numbers of adult males of white peach scale and Thomsonisca amathus, a parasitoid wasp and natural enemy thereof, which had stuck to the sticky plates, was counted every day, respectively.
(§3) When the number of adult males of white peach scale attracted to the trap in Comparative Example 1 comprising an attractant containing 100% of (R,Z)-(+)-3,9-dimethyl-6-isopropenyl-3,9-decadienyl propionate was assigned as 100, the number attracted to each trap was calculated as a relative value. In the attraction test of Thomsonisca amathus, similar data processing was performed.

Thomsonisca amathus = experiment: Field sticky-trap attraction test in a tea field, natural-enemy parasitoid wasp; assay type: in vivo; details: number attracted to trap relative to Comparative Example 1 (100% Z isomer) = 100, rubber cap with 0.1 mg in total of Z and E isomers, white sticky trap, June 2007
Description: as §1, §2, §3

| SMILES | attraction of adult males of white peach scale [1] | attraction of Thomsonisca amathus (Thomsonisca amathus) |
| --- | --- | --- |
| C=C(C)CC[C@H](C/C=C(/C)CCOC(=O)CC)C(=C)C [Comp.Ex. 1, (R,Z)-(+)-3,9-dimethyl-6-isopropenyl-3,9-decadienyl propionate] | 100.0% | 100.0% |
| C=C(C)CC[C@H](C/C=C(\C)CCOC(=O)CC)C(=C)C [Comp.Ex. 4, (R,E)-(+)-3,9-dimethyl-6-isopropenyl-3,9-decadienyl propionate] | 0.0% | 0.0% |

Reference: patent publication US20110172304A1, “Sex Attractant of White Peach Scale and Attraction Method” (Shin-Etsu Chemical Co., Ltd., priority 2010, published 2011)
